Structures are written as SMILES. *1 amine or outer side, *2 acyl side, *3 side chain or, on linkers, in order; H or OH if unused. Where a SMILES comes first, the peptide text is derived from it. Bridges are numbered along the chain shown (N, C = ends). [ ]: non-standard residue; d: D form. 2Nal = N[C@@H](Cc1ccc2ccccc2c1)C(=O)O; AEF = NCCOc1ccc(C[C@H](N)C(=O)O)cc1; X1 = O=C(Cc1ccc(CN[*:1])cc1)[*:2]; 3Pal = N[C@@H](Cc1cccnc1)C(=O)O; Cit = NC(=O)NCCC[C@H](N)C(=O)O; αMeL = CC(C)C[C@](C)(N)C(=O)O; Dab = NCC[C@H](N)C(=O)O

A short description of data set [1]: Peptide stability in simulated intestinal fluid (SIF). The data set is classed as in vitro ADME. The settings on record: pig, simulated intestinal fluid, SIF, pH 6.8, pancreatin, 37° C., 10 μM; for remaining at 4 h, 10 µM: read-out: SIF (% remaining 4 h). The protocol: (§1) SGF and SIF were prepared based on the United States Pharmacopeia specifications (Test Solutions, United States Pharmacopeia 35, NF 30, 2012). SGF was prepared by dissolving sodium chloride (0.2 g) in 50 mL of water. A volume of 0.7 mL of 10 M HCl was added to adjust the pH of the solution to 1.2 and the volume made up to 100 mL with water. 64 mg porcine pepsin (P7125, Sigma Aldrich) was gently dissolved into 20 mL preheated (37° C.) solution (3.2 g/L) immediately prior to the incubation. SIF was prepared by dissolving monobasic potassium phosphate (0.68 g) in 50 mL of water and adjusting the pH to 6.8 with 1 M NaOH. The volume was subsequently made up to 100 mL with water. 200 mg porcine pancreatin (P1625, Sigma Aldrich) was gently dissolved into 20 mL preheated (37° C.) solution (10 g/L) immediately prior to the incubation.
(§2) To initiate the incubations, 20 μL of peptide stock solution in 50% v/v isopropanol was deposited at the bottom of a well plate and 580 μL matrix solution was added to give a final substrate concentration of 10 μM. The incubation was performed at 37° C. with gentle shaking. 70 μL aliquots were removed at 0, 1 and 4 hours and quenched into 210 μL ice-cold precipitant solution (95% v/v acetonitrile with 0.1% v/v formic acid). After the last timepoint, the sampling plate was mixed for 10 min on a shaking table and centrifuged 10 min at 2200 g. 70 μL resulting supernatant was diluted with 150 μL water, mixed and centrifugated before analysis by liquid chromatography high resolution mass spectrometry. The zero sample was reinjected after the 4-hour sample to confirm that no drift in instrument sensitivity had occurred during the run. Percent remaining at each timepoint was calculated relative to timepoint zero based on absolute peak areas.
Compounds with a SIF stability (after 4 h) above 70% are considered highly SIF stable. Compounds with a SIF stability (after 4 h) between 30-70% (including 30% and 70%) are considered moderately SIF stable. Compounds with a SIF stability (after 4 h) below 30% are considered SIF unstable. SIF stability values above 100% are due to assay uncertainty and indicate the compound has not degraded.

Data set [2] is described as follows: Peptide stability in simulated gastric fluid (SGF). Type of data set: in vitro ADME. To be noted: pig, pH 1.2, pepsin, 37° C. The protocol: as §1, §2
Compounds with a SGF stability (after 4 h) above 70% are considered highly SGF stable. Compounds with a SGF stability (after 4 h) between 30-70% (including 30% and 70%) are considered moderately SGF stable. Compounds with a SGF stability (after 4 h) below 30% are considered SGF unstable. SGF stability values above 100% are due to assay uncertainty and indicate the compound has not degraded.

In data set [3] the test system is IL-23 mediated STAT3 signalling (DB cells). In words: Functional inhibition of IL-23 mediated STAT3 signalling (phospho-STAT3 Tyr705) in DB cells. Type of data set: cell-based, human. The settings on record: for IC50: Table 3-2, EC80 of hIL-23, read-out: hIL-23 (pSTAT3) antagonist IC50; for hIL-23 (pSTAT3) antagonist % inhibition: Table 3-2, maximal inhibitory response, EC80 of hIL-23. Put shortly: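 Phospho-STAT3 in lysed DB cells quantified by MSD kit after 90 min exposure to EC80 human IL-23, following 15 min compound pretreatment (37° C, 5% CO2). IC50 and maximal inhibition derived from curves normalized between IL-23-only and buffer-only controls.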

The next data set has as its target T1, human IL-23R (Homo sapiens, UniProt Q5VWK5).
T1 construct: Nanoluc luciferase (Nluc); secretion signal encoded by the plasmid (not specified); expressed in transfected cells; crude membranes used in the assay
T1 sequence (Q5VWK5 22-629): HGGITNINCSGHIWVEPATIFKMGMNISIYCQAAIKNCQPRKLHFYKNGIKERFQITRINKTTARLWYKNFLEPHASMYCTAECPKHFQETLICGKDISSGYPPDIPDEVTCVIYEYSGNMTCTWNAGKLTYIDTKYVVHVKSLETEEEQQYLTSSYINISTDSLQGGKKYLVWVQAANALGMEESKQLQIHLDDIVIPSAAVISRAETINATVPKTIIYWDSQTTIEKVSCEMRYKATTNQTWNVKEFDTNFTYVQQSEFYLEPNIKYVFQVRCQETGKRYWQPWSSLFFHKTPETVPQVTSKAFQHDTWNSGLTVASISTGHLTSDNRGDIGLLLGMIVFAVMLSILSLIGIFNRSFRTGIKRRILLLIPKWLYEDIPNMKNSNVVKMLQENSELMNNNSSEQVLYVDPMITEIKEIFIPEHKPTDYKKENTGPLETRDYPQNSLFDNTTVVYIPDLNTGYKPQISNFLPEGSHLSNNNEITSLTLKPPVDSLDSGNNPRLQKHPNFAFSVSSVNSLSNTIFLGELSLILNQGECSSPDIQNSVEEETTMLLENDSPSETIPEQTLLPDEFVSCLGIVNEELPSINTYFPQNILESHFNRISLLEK
Put plainly: Binding assay: displacement of fluorophore (TAMRA)-labelled reference compound from human IL-23R (BRET, Nluc-IL23R fusion protein membranes). The settings on record: for Emax: read-out: % displacement (hIL-23R binding). (In general: In BRET a luciferase serves as donor, and the signal depends on an acceptor being close.)

Text for human IL-23R: The assay principle relies on Bioluminescence Resonance Energy Transfer (BRET) between a fluorophore-labelled reference compound binding to the IL-23R part of a fusion protein consisting of the IL-23R fused to a Nanoluc luciferase enzyme (Nanoluc). The Nanoluc is placed in the N-terminus in close proximity to the binding domain of the ligand. Upon close proximity between the fluorophore of the fluorophore-labelled compound and the Nanoluc of the fusion protein, bioluminescence energy generated from conversion of a Nanoluc substrate, is transferred to the fluorophore resulting in an increase in BRET. In presence of an unlabelled compound, the unlabelled compound displaces the fluorophore-labelled peptide from its binding site resulting in a decrease in BRET. The concentration for which half of the fluorophore-labelled peptide is displaced by the unlabelled compound depends on the affinity of the compound for the IL-23R, and is termed the IC50 concentration.
The plasmid also contained a gene to confer resistance for the antibiotic hygromycin. A cell line stably expressing the Nluc-IL23R fusion protein was generated by transfection of HEK293 cells with the expression plasmid and selected with hygromycin for 3 weeks in Growth medium consisting of DMEM w/Glutamax-I containing, 10% V/V FBS, 1% V/V P/S, 1 mM Sodium Pyruvate, and 1× NEAA, and 0.3 mg/mL hygromycin. The remaining cells were propagated and considered a stable expressing Nluc-IL23R fusion protein pool clone.
Cells expressing the Nluc-IL23R fusion protein were expanded in Growth medium and membranes prepared by homogenization of a cell pellet from 18 T175 flasks (4° C. in subsequent steps). The cell pellet was lysed Tris 10 mM, 7.5, 1 mM EDTA and protease inhibitors (Complete, Roche) and homogenized using a 15 mL glass-dounce by 50 strokes. The homogenate was spun at spin @1500 rpm for 10 min, the supernatant transferred to SV-34 tubes and spun at 40000 g for 20 min at 4° C. to pellet the crude membranes. The supernatant was then removed, the pellet resuspended in 5 mL buffer containing 50 mM HEPES pH 7.4, 5 mM EGTA, and 5 mM MgCl2, and homogenized. Aliquots of the resuspended and homogenized membranes containing the Nluc-IL23R fusion protein were stored at −80° C. until use.
The plate was sealed with light impermeable plate seals, and incubated on an orbital shaker 400 rpm for 2 hours at room temperature. To determine the BRET ratio, the plate seal was removed and 25 μL of the Nanoluc substrate (Promega N1572) diluted 1:500 was added to each well and incubated for 1-2 minutes on an orbital shaker at 400 rpm. […] The BRET ratio was calculated as the fluorescence from the TAMRA/nanoluc bioluminescence.
Compound potency (IC50) and maximal displacement (% displacement) were estimated by computer-aided curve fitting using a 4-parameter logistic (4PL) non-linear model. The IC50 and maximal for each compound was determined by computer-aided curve fitting using a 4-parameter logistic (4PL) non-linear model.

Take `CNC(=O)[C@H](Cc1cccnc1)NC(=O)[C@H](CCN)NC(=O)[C@@H]1CCC(=O)NCc2ccc(cc2)CC(=O)N[C@@H](Cc2ccccc2)C(=O)N[C@H]2CCC(=O)NCC[C@H](NC(=O)[C@H](CCC(N)=O)NC(=O)[C@H](Cc3c[nH]c4ccccc34)NC2=O)C(=O)N[C@@H](Cc2ccc(OCCN)cc2)C(=O)N[C@@H](Cc2ccc3ccccc3c2)C(=O)N[C@@](C)(CC(C)C)C(=O)N1` [Compound 21, [4-Aminomethyl-phenylacetyl](1c)*FE(2c)WQ[Dab](2c)[Y(2-aminoethoxy)][2-Nal][2-Me-Leu]E(1c)[Dab][3-(3-Pyridyl)-Ala]-[NHMe]] ([X1]FEWQ[Dab][AEF][2Nal][αMeL]E[Dab][3Pal]-NHMe; lactam 3-6, N-10): the fraction remaining at 4 h, 10 µM in data set [1] was 57%. Moreover, in data set [2], the amount remaining at 1 h, 10 µM is 101% and the amount remaining at 4 h, 10 µM is 101%. For the same molecule, in data set [3], the IC50 (as a rule, the concentration that gives 50% inhibition) turned out to be 0.063 nM and the “hIL-23 (pSTAT3) antagonist % inhibition” value came to 102%.

In the case of `CNC(=O)[C@H](Cc1cccnc1)NC(=O)[C@H](CCN)NC(=O)[C@@H]1CCC(=O)NCc2ccc(cc2)CC(=O)N[C@@H](CO)C(=O)N[C@H]2CCC(=O)NCC[C@H](NC(=O)[C@H](CCCNC(N)=O)NC(=O)[C@H](Cc3c[nH]c4ccccc34)NC2=O)C(=O)N[C@@H](Cc2ccc(OCCN)cc2)C(=O)N[C@@H](Cc2ccc3ccccc3c2)C(=O)N[C@@](C)(CC(C)C)C(=O)N1` [Compound 26, [4-Aminomethyl-phenylacetyl](1c)*SE(2c)W[Cit][Dab](2c)[Y(2-aminoethoxy)][2-Nal][2-Me-Leu]E(1c)[Dab][3-(3-Pyridyl)-Ala]-[NHMe]] ([X1]SEW[Cit][Dab][AEF][2Nal][αMeL]E[Dab][3Pal]-NHMe; lactam 3-6, N-10), in data set [1], the share remaining at 1 h, 10 µM was 89%. Besides, in data set [2], the share remaining at 1 h, 10 µM is 105% and the share remaining at 4 h, 10 µM was 99%. In addition, in data set [3], the IC50 worked out at 0.042 nM and the “hIL-23 (pSTAT3) antagonist % inhibition” value was determined as 100%.

In the case of `CCCC[C@H](NC(=O)[C@@H]1CCC(=O)NCc2ccc(cc2)CC(=O)N[C@@H](CO)C(=O)N[C@H]2CCC(=O)NCC[C@H](NC(=O)[C@H](CCC(N)=O)NC(=O)[C@H](Cc3c[nH]c4ccccc34)NC2=O)C(=O)N[C@@H](Cc2ccc(OCCN)cc2)C(=O)N[C@@H](Cc2ccc3ccccc3c2)C(=O)N[C@@](C)(CC(C)C)C(=O)N1)C(=O)N[C@@H](Cc1cccnc1)C(=O)NC` [Compound 32, [4-Aminomethyl-phenylacetyl](1c)*SE(2c)WQ[Dab](2c)[Y(2-aminoethoxy)][2-Nal][2-Me-Leu]E(1c)[Nle][3-(3-Pyridyl)-Ala]-[NHMe]], the Emax at human IL-23R came out at 98%. For the same molecule, the share remaining at 1 h, 10 µM in data set [1] was 94%. Also, the share remaining at 4 h, 10 µM in data set [2] was 90%.

Turning to `CNC(=O)[C@H](Cc1cccnc1)NC(=O)C1(NC(=O)[C@@H]2CCC(=O)NCc3ccc(cc3)CC(=O)N[C@@H](CO)C(=O)N[C@H]3CCC(=O)NCC[C@H](NC(=O)[C@H](CCC(N)=O)NC(=O)[C@H](Cc4c[nH]c5ccccc45)NC3=O)C(=O)N[C@@H](Cc3ccc(OCCN)cc3)C(=O)N[C@@H](Cc3ccc4ccccc4c3)C(=O)N[C@@](C)(CC(C)C)C(=O)N2)CCOCC1` [Compound 35, [4-Aminomethyl-phenylacetyl](1c)*SE(2c)WQ[Dab](2c)[Y(2-aminoethoxy)][2-Nal][2-Me-Leu]E(1c)[THP][3-(3-Pyridyl)-Ala]-[NHMe]], on human IL-23R, the IC50 is 0.039 nM and the Emax turned out to be 101%. Moreover, the fraction remaining at 4 h, 10 µM in data set [1] is 96%. Also, the fraction remaining at 1 h, 10 µM in data set [2] is 101%.

Values taken from patent publication US20260327264A1, “PEPTIDE INHIBITORS OF INTERLEUKIN-23 RECEPTOR” (Zealand Pharma A/S, priority 2023, published 2026).
